# Source: ChEMBL document CHEMBL3091353, “Trisubstituted and tetrasubstituted pyrazolines as a novel class of cell-growth inhibitors in tumor cells with wild type p53” (Bioorg Med Chem, 2013)
# pIC50: −log10 of the molar value. Activity calls are given as the source filed them. The calls are words filed in the database; no cut-off is given here.
# Key:
# [1] = Cytotoxicity against human H1299 cells after 72 hrs by CellTiterGlo luciferase-based assay; format: functional, cell-based; conditions: NCI-H1299, 72 h
# HCT-116 [2] = assay: Cytotoxicity against human HCT116 cells after 72 hrs by CellTiterGlo luciferase-based assay; format: functional, cell-based; conditions: HCT-116, 72 h
# [3] = Ratio of IC50 for human H1299 cells to IC50 for human HCT116 cells; conditions: H1299 cells and HCT116 cells
# [4] = target: E3 ubiquitin-protein ligase Mdm2 (Homo sapiens) (UniProt Q00987); assay: Displacement of carboxyfluorescein-labeled LTFEHYWAQLTS-FAM from human MDM2 (16 to 116) expressed in Escherichia coli C41 at 0.005 to 1 mM by fluorescence anisotropic analysis
# Chain of E3 ubiquitin-protein ligase Mdm2 (Homo sapiens) (Q00987 whole entry, looked up): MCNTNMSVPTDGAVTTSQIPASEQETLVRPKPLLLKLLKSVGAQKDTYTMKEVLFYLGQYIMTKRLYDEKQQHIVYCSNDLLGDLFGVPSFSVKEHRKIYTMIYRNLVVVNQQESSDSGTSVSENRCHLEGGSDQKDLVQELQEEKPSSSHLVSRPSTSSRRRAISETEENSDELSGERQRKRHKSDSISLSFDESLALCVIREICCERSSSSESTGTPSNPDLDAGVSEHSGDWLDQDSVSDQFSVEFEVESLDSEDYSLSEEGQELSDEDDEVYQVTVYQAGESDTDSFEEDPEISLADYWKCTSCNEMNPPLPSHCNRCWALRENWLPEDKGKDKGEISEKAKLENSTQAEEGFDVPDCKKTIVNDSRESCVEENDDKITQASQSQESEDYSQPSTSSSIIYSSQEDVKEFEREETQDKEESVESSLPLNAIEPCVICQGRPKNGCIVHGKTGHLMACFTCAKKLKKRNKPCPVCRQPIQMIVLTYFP
# [5] = target: E3 ubiquitin-protein ligase Mdm2 (Homo sapiens) (UniProt Q00987); assay: Displacement of carboxyfluorescein-labeled LTFEHYWAQLTS-FAM from MDM2 (unknown origin) (2 to 125) at 0.005 to 1 mM by fluorescence anisotropic analysis
# NCI-H1299 = assay: Cytotoxicity against human H1299 cells at 20 uM after 72 hrs by CellTiterGlo luciferase-based assay; format: functional, cell-based
# HCT-116 [6] = assay: Cytotoxicity against human HCT116 cells at 20 uM after 72 hrs by CellTiterGlo luciferase-based assay; format: functional, cell-based
# [7] = target: Cellular tumor antigen p53 (Homo sapiens) (UniProt P04637); assay: Induction of p53 translocation in human HCT116 cells assessed as protein nuclear to cytosolic ratio at 30 uM after 20 hrs by immunofluorescence analysis; format: cell-based; conditions: HCT-116
# Chain of Cellular tumor antigen p53 (Homo sapiens) (P04637 whole entry, looked up): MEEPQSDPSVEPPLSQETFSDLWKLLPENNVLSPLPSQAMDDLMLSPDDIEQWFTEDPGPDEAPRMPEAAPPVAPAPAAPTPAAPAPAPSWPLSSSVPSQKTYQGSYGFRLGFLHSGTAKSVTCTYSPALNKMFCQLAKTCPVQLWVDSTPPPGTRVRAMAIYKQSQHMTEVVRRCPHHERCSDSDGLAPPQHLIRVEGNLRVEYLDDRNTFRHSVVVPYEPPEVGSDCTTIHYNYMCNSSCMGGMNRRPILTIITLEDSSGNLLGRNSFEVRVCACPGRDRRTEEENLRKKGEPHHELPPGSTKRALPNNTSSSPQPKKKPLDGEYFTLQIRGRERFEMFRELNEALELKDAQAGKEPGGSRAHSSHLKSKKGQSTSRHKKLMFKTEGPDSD
inhibition [4],inhibition [5],Activity [7],SMILES,pIC50 [1],pIC50 (HCT-116 [2]),selectivity ratio [3],inhibition (NCI-H1299),inhibition (HCT-116 [6])
,,,COc1ccc(C2=N[C@@H](c3ccc(Cl)cc3)[C@@H](c3ccc(Cl)cc3)N2C(=O)N2CCNC(=O)C2)c(OC(C)C)c1 [NUTLIN-3],4.83,5.80,9,,
Active,Active,,CC(C)(C)C1=NN(c2ccc(Cl)cc2)C(c2ccc(Cl)c(Cl)c2)C1 (stereo not drawn),4.83,5.28,,,
inactive,inactive,,CCOc1ccccc1C1=NN(c2ccc(Cl)cc2)C(c2ccc(Cl)cc2)C1C(=O)N1CCOCC1 (stereo not drawn),5.08,5.10,,,
,,,COc1ccc(C2=NN(c3cccc(Cl)c3)C(c3ccccc3Cl)C2)cc1 (stereo not drawn),,,,Active,Active
inactive,inactive,,COc1ccccc1C1=NN(c2cccc(Cl)c2)C(c2cccc(Cl)c2)C1 (stereo not drawn),4.93,5.80,,,
Active,Active,,CC(C)(C)C1=NN(c2ccc(Br)cc2)C(c2ccc(Cl)cc2)C1 (stereo not drawn),4.71,5.37,,,
inactive,inactive,,COc1ccccc1C1=NN(c2ccccc2Cl)C(c2cccc(Cl)c2)C1 (stereo not drawn),4.87,5.72,,,
inactive,inactive,inactive,COc1cccc(C2=NN(c3ccccc3Cl)C(c3ccccc3Cl)C2)c1 (stereo not drawn),4.87,5.60,,,
Active,Active,,CC(C)(C)C1=NN(c2ccc(Cl)cc2)C(c2ccc3ccccc3c2)C1 (stereo not drawn),,4.90,,,
Active,Active,,CC(C)(C)C1=NN(c2ccc(Cl)cc2)C(c2ccc(Cl)cc2)C1C(=O)N1CCOCC1 (stereo not drawn),4.85,5.46,,,
inactive,inactive,,COc1cccc(C2=NN(c3ccc(Cl)cc3)C(c3cccc(Cl)c3)C2)c1 (stereo not drawn),,4.73,,,
inactive,inactive,,COc1ccc(C2=NN(c3ccccc3Cl)C(c3cccc(Cl)c3)C2)cc1 (stereo not drawn),5.14,5.82,,,
Active,Active,,CC(C)(C)C1=NN(c2ccc(Cl)cc2)C(c2ccc(Cl)cc2)C1 (stereo not drawn),4.71,4.76,,,
